Test results: PMC10889512, “Pyrimidine Schiff Bases: Synthesis, Structural Characterization and Recent Studies on Biological Activities” (International Journal of Molecular Sciences, 2024)

Assays:
CaCo-2 = test: Neutral red uptake assay on CaCo-2; format: cell-based; settings: Homo sapiens; CaCo-2, 72 h treatment
Protocol: Based on the results obtained for the RPTEC cell line, the following concentrations of 4b–d were chosen to be applied to neoplastic cell lines: 0.1, 1, 10, 25, 50, and 100 µM. A172, AGS, CaCo-2, HeLa, and HepG2 cancer cell lines were used to perform a neutral red uptake assay. The obtained results were compared with a negative control (cell lines incubated without tested compounds), and half-maximal inhibitory concentration (IC50) values were calculated. Cell lines were plated in 96-well plates at a density of 1 × 10^4 cells/well. After 24 h incubation, which allowed the cells to attach and start to proliferate, the culture media were replaced with 4a–d dissolved in the appropriate medium at concentrations of 1, 10, 50, 100, 150 and 200 µM. […] Negative (1% DMSO in medium) and positive (1 µM staurosporine) controls were also included. Plates were incubated at 37 °C for 24, 48, and 72 h before the neutral red uptake assay. The neutral red uptake assay was performed as described by Repetto et al.. Briefly, the medium from all wells was discarded, the attached cells were washed with 100 µL PBS, and then 100 µL of neutral red working solution in medium (40 µg/mL) was added to each well. The neutral red solution was incubated overnight in the same conditions as the cells and centrifuged before being added to the cells. The plates were incubated for at least 2 h at 37 °C, 5% CO2, in a humidified atmosphere. Next, the neutral red medium was removed, and the cells were washed with 100 µL PBS. A 100 µL quantity of destain solution consisting of 50% ethanol, 1% glacial acetic acid, and deionized water was added to each well. Plates were incubated for 30 min with constant shaking on a horizontal shaker at 37 °C. Absorption was measured at 540 nm excitation. The cells’ viability was calculated by comparing results from experimental sets with negative controls according to the formula: % viability=ODtest substance−ODblind/ODnegative control−ODblind×100

AGS cell line = test: Comet assay (single-cell gel electrophoresis), AGS; format: cell-based, human
Protocol: Single-cell gel electrophoresis was performed to assess the potential genotoxic effect on AGS and A172 after incubation with compound 4b at IC50. This method is based on the ability of damaged DNA to migrate out of the cell during electrophoresis. After DNA staining (Hoechst 33342), the characteristic “comet tail” could be observed under the fluorescence microscope. The damages in 100 randomly selected cells were visually classified into five groups according to the length of the “comet tail”. Group 0 consisted of cells without damaged DNA, while group 4 contained cells with maximally long tails. Based on this, a group damage index (DI) was calculated. The genotoxic effect was found in both examined cell lines. […]
The comet assay was performed according to the method of Singh et al. with slight modifications. […] A total of 100 randomly selected cells were scored, and captured comets were classified based on the comet’s tail length as follows: class 0 contained comets with no damaged DNA; class 1, those with low damage; class 2, those with medium damage; class 3, those with high damage; and class 4, those with very high damage. The damage index (DI) was calculated as follows: DI=0×n0+1×n1+2×n2+3×n3+4×n4, n0,1,2,3,4 —the amount of comets in each class.

Compound: Cc1nc(-c2ccccc2)nc(Nc2ccc(F)cc2)c1C=Nc1cccc(Cl)c1 [compound 4b, 5-{[(3-chlorophenyl)imino]methyl}-N-(4-fluorophenyl)-6-methyl-2-phenylpyrimidin-4-amine]
- IC50 (CaCo-2): > 100 µM
- DNA damage index (AGS cell line; at IC50, 24 h): 63 arbitrary units
- DNA damage index (AGS cell line; at IC50, 48 h): 107 arbitrary units
